Test results taken from US6610675B1 (priority 1980, dated 2003).

Tests used:
[1] = system: granulation tissue formation caused by implantation of cotton pellets; test: Granuloma formation test (local cotton pellet granuloma assay); assay type: in vivo, rat; conditions: for Body wt. gain / Granulation tissue Dry wt. / Granulation tissue Dry wt. Inhibition / Granulation tissue Wet wt. / Granulation tissue Wet wt. Inhibition / Thymus wt.: Table IV; for Relative potency (ED40) / Relative potency (ED60): chloromethyl 11β-hydroxy-17α-isopropoxycarbonyloxyandrost-4-en-3-one-17β-carboxylate = 1; for ED40: dose causing 40% inhibition of granulation tissue weight; for ED60: dose causing 60% inhibition of granulation tissue weight
Description: The test compound was dissolved in acetone and aliquots of varying concentrations were injected into cotton pellets. The pellets were dried and then one pellet was implanted beneath the skin of each test rat. Six days later, the animals were sacrificed and the granulation tissue (granuloma) which formed in and around the implanted pellet was removed, dried and weighed. In addition, the thymi and adrenals were removed and weighed.

thymus weight in rats = test: Thymus inhibition testing (subcutaneous administration); assay type: in vivo, rat
Description: Several further studies were undertaken to determine the effects of selected compounds of the invention on thymi weights in rats when the drugs were systemically administered. In each of these studies, male Sprague-Dawley rats were used. […] On the fifth day (48 hours following the last treatment), the animals were sacrificed and the thymi weights were recorded. […] It is evident that the higher the inhibition of thymus activity at a given dose, the more toxic the compound is.

[2] = dose causing 50% inhibition of granulation tissue weight
[3] = Table VIII, 10 mg/kg/day s.c., three days
[4] = Table XII, anti-inflammatory effect in cotton pellet granuloma
[5] = Table VII, 3 mg/kg/day s.c., three days
[6] = Table VII, 10 mg/kg/day s.c., three days
[7] = Table VII, 30 mg/kg/day s.c., three days
[8] = Table VII, 100 mg/kg/day s.c., three days
[9] = Table X, betamethasone 17-valerate = 1
[10] = Table XII, hydrocortisone 17-butyrate = 1
[11] = Table XII, thymus inhibition effect, subcutaneously
[12] = Table IX, 3 mg/kg/day s.c., three days
[13] = Table IX, 10 mg/kg/day s.c., three days
[14] = Table IX, 30 mg/kg/day s.c., three days
[15] = Table IX, 100 mg/kg/day s.c., three days

Structure (SMILES): CC(C)OC(=O)O[C@]1(C(=O)OCCl)[C@@H](C)C[C@H]2[C@@H]3CCC4=CC(=O)C=C[C@]4(C)[C@@]3(F)[C@@H](O)C[C@@]21C [chloromethyl 9α-fluoro-11β-hydroxy-17α-isopropoxycarbonyloxy-16β-methylandrosta-1,4-dien-3-one-17β-carboxylate]
- Body wt. gain ([1]; 1 μg/pellet): 33.0 ± 1.7 g
- Granulation tissue Dry wt. ([1]; 1 μg/pellet): 44.4 ± 5.4 mg
- Granulation tissue Dry wt. Inhibition ([1]; 1 μg/pellet): 45.3%
- Granulation tissue Wet wt. ([1]; 1 μg/pellet): 423 ± 19 mg
- Granulation tissue Wet wt. Inhibition ([1]; 1 μg/pellet): 25.3%
- Thymus wt. ([1]; 1 μg/pellet): 526 ± 30 mg
- Body wt. gain ([1]; 3 μg/pellet): 30.4 ± 1.1 g
- Granulation tissue Dry wt. ([1]; 3 μg/pellet): 26.9 ± 4.4 mg
- Granulation tissue Dry wt. Inhibition ([1]; 3 μg/pellet): 66.9%
- Granulation tissue Wet wt. ([1]; 3 μg/pellet): 351 ± 19 mg
- Granulation tissue Wet wt. Inhibition ([1]; 3 μg/pellet): 38.0%
- Thymus wt. ([1]; 3 μg/pellet): 471 ± 20 mg
- Body wt. gain ([1]; 10 μg/pellet): 33.0 ± 1.5 g
- Granulation tissue Dry wt. ([1]; 10 μg/pellet): 29.9 ± 3.3 mg
- Granulation tissue Dry wt. Inhibition ([1]; 10 μg/pellet): 63.2%
- Granulation tissue Wet wt. ([1]; 10 μg/pellet): 362 ± 8 mg
- Granulation tissue Wet wt. Inhibition ([1]; 10 μg/pellet): 36.0%
- Thymus wt. ([1]; 10 μg/pellet): 474 ± 25 mg
- Body wt. gain ([1]; 30 μg/pellet): 31.8 ± 1.7 g
- Granulation tissue Dry wt. ([1]; 30 μg/pellet): 19.9 ± 2.3 mg
- Granulation tissue Dry wt. Inhibition ([1]; 30 μg/pellet): 75.5%
- Granulation tissue Wet wt. ([1]; 30 μg/pellet): 315 ± 12 mg
- Granulation tissue Wet wt. Inhibition ([1]; 30 μg/pellet): 44.3%
- Thymus wt. ([1]; 30 μg/pellet): 489 ± 26 mg
- Relative potency (ED40) [1]: 1228
- Relative potency (ED60) [1]: 184
- ED40 [1]: 0.25 μg/pellet
- ED50 [1, 2]: 0.97 μg/pellet
- ED60 [1]: 3.75 μg/pellet
- Body weight gain (thymus weight in rats; [3]): 5.3 ± 1.4 g
- Thymus wt. (thymus weight in rats; [3]): 260 ± 26 mg
- Thymus wt. Inhibition (thymus weight in rats; [3]): 52.7%

Structure (SMILES): CC(C)OC(=O)O[C@]1(C(=O)OCCl)CC[C@H]2[C@@H]3CCC4=CC(=O)CC[C@]4(C)[C@H]3[C@@H](O)C[C@@]21C [chloromethyl 11β-hydroxy-17α-isopropoxycarbonyloxyandrost-4-en-3-one-17β-carboxylate]
- Body wt. gain ([1]; 100 μg/pellet): 34.9 ± 2.7 g
- Granulation tissue Dry wt. ([1]; 100 μg/pellet): 70.0 ± 6.0 mg
- Granulation tissue Dry wt. Inhibition ([1]; 100 μg/pellet): 13.8%
- Granulation tissue Wet wt. ([1]; 100 μg/pellet): 485 ± 36 mg
- Granulation tissue Wet wt. Inhibition ([1]; 100 μg/pellet): 14.3%
- Thymus wt. ([1]; 100 μg/pellet): 452 ± 29 mg
- Body wt. gain ([1]; 300 μg/pellet): 33.9 ± 1.6 g
- Granulation tissue Dry wt. ([1]; 300 μg/pellet): 50.9 ± 2.8 mg
- Granulation tissue Dry wt. Inhibition ([1]; 300 μg/pellet): 37.3%
- Granulation tissue Wet wt. ([1]; 300 μg/pellet): 431 ± 20 mg
- Granulation tissue Wet wt. Inhibition ([1]; 300 μg/pellet): 23.9%
- Thymus wt. ([1]; 300 μg/pellet): 469 ± 25 mg
- Body wt. gain ([1]; 1000 μg/pellet): 34.0 ± 2.6 g
- Granulation tissue Dry wt. ([1]; 1000 μg/pellet): 24.1 ± 2.7 mg
- Granulation tissue Dry wt. Inhibition ([1]; 1000 μg/pellet): 70.3%
- Granulation tissue Wet wt. ([1]; 1000 μg/pellet): 305 ± 16 mg
- Granulation tissue Wet wt. Inhibition ([1]; 1000 μg/pellet): 46.1%
- Thymus wt. ([1]; 1000 μg/pellet): 464 ± 30 mg
- Body wt. gain ([1]; 3000 μg/pellet): 32.4 ± 2.3 g
- Granulation tissue Dry wt. ([1]; 3000 μg/pellet): 20.3 ± 1.3 mg
- Granulation tissue Dry wt. Inhibition ([1]; 3000 μg/pellet): 75.0%
- Granulation tissue Wet wt. ([1]; 3000 μg/pellet): 292 ± 7 mg
- Granulation tissue Wet wt. Inhibition ([1]; 3000 μg/pellet): 48.4%
- Thymus wt. ([1]; 3000 μg/pellet): 459 ± 24 mg
- ED50 [1, 4]: 460 μg/pellet
- Relative potency (ED40) [1]: 1
- Relative potency (ED60) [1]: 1
- ED40 [1]: 307 μg/pellet
- ED50 [1, 2]: 460 μg/pellet
- ED60 [1]: 690 μg/pellet
- Body weight gain (thymus weight in rats; [5]): 14.7 ± 0.6 g
- Thymus (thymus weight in rats; [5]): 439 ± 18 mg
- Thymus Inhibition (thymus weight in rats; [5]): 6.8%
- Body weight gain (thymus weight in rats; [6]): 10.2 ± 0.7 g
- Thymus (thymus weight in rats; [6]): 386 ± 17 mg
- Thymus Inhibition (thymus weight in rats; [6]): 18.0%
- Body weight gain (thymus weight in rats; [7]): 6.8 ± 2.1 g
- Thymus (thymus weight in rats; [7]): 291 ± 22 mg
- Thymus Inhibition (thymus weight in rats; [7]): 38.2%
- Body weight gain (thymus weight in rats; [8]): 2.8 ± 1.8 g
- Thymus (thymus weight in rats; [8]): 185 ± 17 mg
- Thymus Inhibition (thymus weight in rats; [8]): 60.7%
- Relative Potency (TED40) (thymus weight in rats; [9]): 0.01
- Relative Potency (TED50) (thymus weight in rats; [9]): 0.01
- TED40 (thymus weight in rats; Table X, dose required to achieve 40% inhibition of thymi weight, subcutaneous): 31.0 mg
- TED50 (thymus weight in rats; Table X, dose required to achieve 50% inhibition of thymi weight, subcutaneous): 58.5 mg
- Relative Potency (TED40) (thymus weight in rats; [10]): 1/24
- TED40 (thymus weight in rats; [11]): 31.0 mg/kg

Structure (SMILES): COC(=O)O[C@]1(C(=O)OCCl)[C@H](C)C[C@H]2[C@@H]3CCC4=CC(=O)C=C[C@]4(C)[C@@]3(F)[C@@H](O)C[C@@]21C [chloromethyl 9α-fluoro-11β-hydroxy-17α-methoxycarbonyloxy-16α-methylandrosta-1,4-dien-3-one-17β-carboxylate]
- ED50 [1, 4]: 2.38 μg/pellet
- Body weight gain (thymus weight in rats; [12]): 18.8 ± 1.4 g
- Thymus wt. (thymus weight in rats; [12]): 426 ± 19 mg
- Thymus wt. Decrease (thymus weight in rats; [12]): 0.0%
- Body weight gain (thymus weight in rats; [13]): 13.8 ± 1.6 g
- Thymus wt. (thymus weight in rats; [13]): 354 ± 8 mg
- Thymus wt. Decrease (thymus weight in rats; [13]): 16.9%
- Body weight gain (thymus weight in rats; [14]): 12.0 ± 0.8 g
- Thymus wt. (thymus weight in rats; [14]): 282 ± 11 mg
- Thymus wt. Decrease (thymus weight in rats; [14]): 33.8%
- Body weight gain (thymus weight in rats; [15]): 9.8 ± 1.3 g
- Thymus wt. (thymus weight in rats; [15]): 206 ± 15 mg
- Thymus wt. Decrease (thymus weight in rats; [15]): 51.6%
- Relative Potency (TED40) (thymus weight in rats; [10]): 1/36
- TED40 (thymus weight in rats; [11]): 46.0 mg/kg
